{
  "source": "patent US20250032580A1",
  "about": "“USE OF ADNF POLYPEPTIDES IN THERAPY” (RAMOT AT TEL-AVIV UNIVERSITY LTD., priority 2021, published 2025)",
  "assay_type_in_all_cases": "cell-based, mouse",
  "key": {"[1]": {"system": "differentiated N1E-115 cells", "assay": "FRAP of mCherry-Tau (Tau-MT interaction)", "procedure": "(§1) Cell culture—Mouse neuroblastoma NIE-115 cells were maintained in Dulbecco's modified Eagle's medium, 10% fetal bovine serum, 2 mM glutamine and 100 U ml—1 penicillin, […] ml—1 streptomycin (Biological Industries, Beit Haemek, Israel). The cells were incubated in 95% air/5% CO2 in a humidified incubator at 37° C.\n(§2) Cell differentiation and co-transfection of overexpression plasmids—Cultured NIE-115 cells were plated on 35 mm dishes (81156, 60μ-Dish, Ibidi, Martinsried, Germany) at a concentration of 1.25×10^4 cells per dish and then were differentiated with reduced fetal bovine serum (2%) and DMSO (1.25%) containing medium for 5 days before transfection. 48 hrs before experiments N1E-115 cells were co-transfected with 1 μg EB3-RFP or mCherry-Tau (3R) plasmid with or without 2 μg of plasmids, coding to GFP conjugated to full-length human ADNP, or ADNP carried mutations. 1:3 ratios between total amount of transfected DNA and transfection reagent were used according to manufacture guidance (Lipofectamine2000, Thermo Fisher Scientific, Waltham, MA, USA) in all subsequent experiments.\nFluorescence recovery after photobleaching (FRAP)—Differentiated NIE-115 cells were transfected with mCherry-Tau with or without GFP-conjugated to full-length ADNP or mutated ADNP, and imaged 48 hrs after transfection. An ROI for photobleaching was drowned in the proximal cell branches. mCherry-Tau was bleached with a […], and fluorescence recovery was collected within wavelengths of 610-650 nm. 80 images were taken every 0.74 sec immediately after bleaching. After FRAP imaging all samples were also treated with NAP in final concentrations of 10^−12 M, and after 4 hrs time-lapse imaging was done again under the same conditions. FRAP imaging for assessment difference between NAP and SKIP (SEQ ID NO: 21) activity was performed after an hour of ZnCl2 treatment (400 μM final concentration; Sigma, Rehovot, Israel) with or without NAP/SKIP (10^−12 M final concentration). Fluorescence signals were quantified with Fiji, obtained data were normalized with easyFRAP [82, 83] and FRAP recovery curves were fitted by a one-phase exponential association function by GraphPad Prism6 (GraphPad Software, Inc., La Jolla, CA, USA) while samples with R^2<0.9 were excluded.\nNext, the effect of full-length/truncated ADNP forms with or without NAP treatment on Tau-MT interaction was examined by fluorescence recovery after photobleaching (FRAP) (FIGS. 8A-C). FRAP was performed with mCherry-tagged Tau protein (FIG. 8A). […] Therefore, the immobile mCherry-Tau fraction reflects the rate of Tau association with MTs."}, "N1E-115 cells": {"system": "N1E-115 cells", "assay": "Polymerized vs. soluble tubulin assay", "conditions": "zinc 400 μM, 4 h, peptide 10^−12 M", "procedure": "Polymerized vs. soluble tubulin assay—To quantify tubulin polymerization and Tau-MT association, a simple assay was performed as previously described. The cells grown to confluence in six-well plates were washed with MT buffer (80 mM PIPES pH 6.8, 1 mM MgCl^2, 2 mM EGTA, 5% Glycerol) and lysed at room temperature for 5 min through centrifugation (300 g), with 150 μl of MT buffer with 0.5% Triton X-100 to extract soluble (cytosolic) tubulin (S). The pelleted cells were rinsed once again with an equal volume of modified RIPA lysis buffer (50 mM Tris-HCL pH 7.4, 150 mM NaCl, 2 mM EGTA, 1% Triton X-100, 0.1% SDS, 0.1% sodium Deoxycholate) to collect the polymerized (cytoskeletal) tubulin (P). The cytosolic and cytoskeletal fractions were each mixed with sample buffer and heated at 95° C. for 5 min. An equal volume of each fraction was analyzed by immunoblotting with Tau, tubulin and actin antibodies, and the results following ECL development were quantified by densitometry (GelQuant.NET software provided by biochemlabsolutions(dot)com).\nIt is known that in the presence of extracellular zinc NAP protects MT against degradation by promoting Tau binding to the MT shaft. Polymerized vs. soluble tubulin assay was effected to compare protective activities of NAP and SKIP against MT degradation and Tau-MT dissociation (FIGS. 11F-G). After treatments with zinc (400 μM, 4 h) with and without NAP or SKIP (10^−12 M, 4 h) the cellular-tubulin pool was separated into polymerized and soluble tubulin fractions. The amount of Tau, tubulin, and actin was identified by immunoblotting (FIG. 11F), followed by densitometric quantification (FIG. 11G)."}, "[2]": {"system": "differentiated N1E-115 cells", "assay": "Live imaging of EB3 comet-like structures (MT dynamics)", "conditions": "10^−12 M, 4 hrs", "procedure": "as §1, §2\nLive Imaging—48 hrs after transfection, differentiated NIE-115 cells (expressing EB3-RFP with or without GFP-conjugated to full-length ADNP or mutated ADNP) were incubated at 37° C. with a 5% CO2/95% air mixture in a thermostatic chamber placed on the stage of a Leica TCS SP5 confocal microscope (objective 100× (PL Apo) oil immersion, NA 1.4). Time-lapse images were automatically captured 3 sec during 1 min, using the Leica LAS AF software. After imaging all samples were also treated with NAP (SEQ ID NO: 2) or SKIP (SEQ ID NO: 21) in final concentrations of 10^−12 M, and after 4 hrs time-lapse imaging was done again under the same conditions. Data was collected and analyzed by Imaris software.\nTo evaluate the effect of ADNP truncated proteins on MT dynamics time-lapse imaging of EB3 comet-like structures formed by RFP-tagged EB3 proteins that bind to MT plus-ends was performed. Two parameters of EB3 activity were used to assess MT dynamics—track length and track speed of EB3 comets, which reflect the length of freshly growing MTs and the speed of MT assembly, respectively. Furthermore, the present inventors aimed to determine whether NAP (10^−12 M for 4 hrs) could prevent the deleterious effect of ADNP mutations."}},
  "data": [
    {"compound": "[Cl-].[Cl-].[Zn+2]", "note": "[zinc, ZnCl2, reference compound]", "values": [
      {"measurement": "Tau immobile fraction in comparison to non-treated control", "setting": "[1]; 400 μM, 1 h", "result": "significantly attenuated"}
    ]},
    {"compound": "SKIP", "values": [
      {"measurement": "Protection against Tau dissociation from MTs", "setting": "N1E-115 cells", "result": "only NAP exhibited protection"},
      {"measurement": "Protection of polymerized tubulin against zinc-induced decay", "setting": "N1E-115 cells", "result": "protected against zinc-induced decay"},
      {"measurement": "Efficacy in terms of MT-Tau interactions, as compared with NAP", "setting": "[1]; summary of results", "result": "reduced efficacy"},
      {"measurement": "Tau immobile fraction under zinc", "setting": "[1]; zinc 400 μM, 1 h, together with peptide 10^−12 M", "result": "prevented zinc adverse effect"},
      {"measurement": "Difference between effects of NAP and SKIP on EB3 track length and speed", "setting": "[2]", "result": "no significant differences"},
      {"measurement": "EB3 track length and speed compared to non-treated control", "setting": "[2]; no ADNP plasmid", "result": "increased EB3 track length and speed"}
    ]}
  ]
}
